Measured values as given in US20230234967A1, “Fused Azole Heterocycles as AHR Antagonists” (Senda Biosciences, Inc., priority 2021, published 2023).

Experiments:
Format in all cases: in vitro ADME
[1] = Hepatocyte Stability Assay, mouse hepatocytes; conditions: cryopreserved mouse hepatocytes, read-out: Mouse hepatocyte clearance
Procedure: (§1) Example 32: Hepatocyte Stability Assay
(§2) Preparation of working solutions: 10 mM stock solutions of test compound and positive control were prepared in DMSO. In separate conical tubes, the 10 mM solution of test compound and the positive control were diluted to 100 μM by combining 198 μL of 50% acetonitrile/50% water and 2 μL of 10 mM stock.
(§3) Preparation of Hepatocytes: Incubation medium (William's E Medium supplemented with GlutaMAX) and hepatocyte thawing medium were placed in a 37° C. water bath and allowed warming for at least 15 minutes prior to use. A vial of cryopreserved hepatocytes was transferred from storage, ensuring that vials remained at cryogenic temperatures until thawing process ensued. Cells were thawed by placing the vial in a 37° C. water bath and gently shaking the vials for 2 minutes. […] Using an AO/PI Staining, cells were counted and the viable cell density was determined. Cells with poor viability (<75% viability) were determined to be not acceptable for use. […]
(§4) Data Analysis: All calculations were carried out using Microsoft Excel. Peak areas were determined from extracted ion chromatograms. In vitro half-life (t1/2) of parent compound was determined by regression analysis of the percent parent disappearance vs. time curve.
(§5) The in vitro half-life (in vitro t1/2) was determined from the slope value: […]

[2] = Hepatocyte Stability Assay, human hepatocytes; conditions: cryopreserved human hepatocytes, read-out: Human hepatocyte clearance
Procedure: as §1, §2
Preparation of Hepatocytes: Incubation medium (William's E Medium supplemented with GlutaMAX) and hepatocyte thawing medium were placed in a 37° C. water bath and allowed warming for at least 15 minutes prior to use. A vial of cryopreserved hepatocytes was transferred from storage, ensuring that vials remained at cryogenic temperatures until thawing process ensued. Cells were thawed by placing the vial in a 37° C. water bath and gently shaking the vials for 2 minutes. After thawing was completed, vial was sprayed with 70% ethanol and transferred to a biosafety cabinet. Wide-bore pipette tip were used to transfer hepatocytes into 50 mL conical tube containing thawing medium. The 50 mL conical tube were placed into a centrifuge and spun at 100 g for 10 minutes. Upon completion of spin, thawing medium was aspirated and resuspended hepatocytes in enough incubation medium to yield ˜1.5×10^6 cells/mL. Using an AO/PI Staining, cells were counted and the viable cell density was determined. Cells with poor viability (<75% viability) were determined to be not acceptable for use. Cells were diluted with incubation medium to a working cell density of 0.5×10^6 viable cells/mL.
Procedure for Stability Determination: 198 μL of hepatocytes were pipetted into each wells of a 96-well non-coated plate. The plate was placed in the incubator to allow the hepatocytes to warm for 10 minutes. 2 μL of the 100 μM test compound or positive control solutions were pipetted into respective wells of the 96-well non-coated plate to start the reaction. The plate was returned to the incubator for the designed time points. Well contents was transferred in 25 μL aliquots at time points of 0, 15, 30, 60, 90 and 120 minutes. The aliquots were then mixed with 6 volumes (150 μL) of acetonitrile containing internal standard, IS (100 nM alprazolam, 200 nM caffeine and 100 nM tolbutamide) to terminate the reaction. The mixture was vortex for 5 minutes. Samples were centrifuged for 45 minutes at 3,220 g. An aliquot of 100 μL of the supernatant was diluted by 100 μL ultra-pure water, and the mixture was used for LC/MS/MS analysis. All incubations were performed in duplicate.
as §4
The in vitro half-life (in vitro t1/2) was determined from the slope value:
Conversion of the in vitro t1/2 (in min) into the in vitro intrinsic clearance (in vitro CLint, in μL/min/1×10^6 cells) was done using the following equation (mean of duplicate determinations): • in vitro CLint=kV/N • V=incubation volume (0.2 mL); • N=number of hepatocytes per well (0.1×10^6 cells).
“+++” indicates a CLint value less than 20 mL/min/Kg, “++” indicates a CLint between 20 and 50 mL/min/Kg, and “+” indicates an CLint above 50 mL/min/Kg.

[3] = Hepatocyte Stability Assay, rat hepatocytes; conditions: cryopreserved rat hepatocytes, read-out: Rat hepatocyte clearance
Procedure: as §1, §2, §3, §4, §5

Molecule `COc1ccccc1-c1ccc2nc(NC(=O)c3ccnn3C)sc2n1` [Product 25, N-(5-(2-methoxyphenyl)thiazolo[5,4-b]pyridin-2-yl)-1-methyl-1H-pyrazole-5-carboxamide] has a CLint scaled at 1 µM [1] of over 50 mL/min/kg, a CLint scaled at 1 µM [2] of under 20 mL/min/kg and a CLint scaled at 1 µM [3] of over 50 mL/min/kg.
`Cc1ccccc1-c1ccc2nc(NC(=O)c3ccnn3C)sc2n1` [Product 15, 1-Methyl-N-(5-(o-tolyl)thiazolo[5,4-b]pyridin-2-yl)-1H-pyrazole-5-carboxamide] gave a CLint scaled at 1 µM [2] of under 20 mL/min/kg and a CLint scaled at 1 µM [3] of over 50 mL/min/kg.
Molecule `COc1ccccc1-c1ccc2nc(NC(=O)c3ccccn3)sc2n1` [Product 12, N-(5-(2-methoxyphenyl)thiazolo[5,4-b]pyridin-2-yl)picolinamide] has a CLint scaled at 1 µM [2] of 20 to 50 mL/min/kg.
In the case of `Cc1ccccc1-c1ccc2nc(NC(=O)N3CCOCC3)sc2n1` [Product 39, N-(5-(o-tolyl)thiazolo[5,4-b]pyridin-2-yl)morpholine-4-carboxamide], the CLint scaled at 1 µM [2] is reported as under 20 mL/min/kg.
`CN(C)c1ccccc1-c1ccc2nc(NC(=O)c3ccnn3C)sc2n1` [Product 18, N-(5-(2-(dimethylamino)phenyl)thiazolo[5,4-b]pyridin-2-yl)-1-methyl-1H-pyrazole-5-carboxamide] showed a CLint scaled at 1 µM [2] of 20 to 50 mL/min/kg.
Work on `Cn1ncnc1C(=O)Nc1cnc2cc(-c3cc(F)ccc3C(F)F)[nH]c2c1` [Product 47] yielded a CLint scaled at 1 µM [2] of under 20 mL/min/kg.
Molecule `Cc1ccccc1-c1ccc2nc(NC(=O)c3ccccn3)sc2n1` [Product 8, N-(5-(o-tolyl)thiazolo[5,4-b]pyridin-2-yl)picolinamide] has a CLint scaled at 1 µM [1] of over 50 mL/min/kg and a CLint scaled at 1 µM [2] of 20 to 50 mL/min/kg.
